The target of assay [1] is KRAS G12C (Homo sapiens, UniProt P01116, G12C). The assay can be described thus: Cell Activity Assay: accumulation of GDP-bound KRAS G12C in MIAPaCa-2 cells (Raf-1 RBD capture, MSD readout). It is filed as cell-based. Also noted: endogenous in cells; host or cells: MIAPaCa-2. The conditions noted are these: 6 hours, assay limit is 30.00. Summed up: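 MIAPaCa-2 cells exposed 6 h at 37 °C to 3-fold compound dilutions (0.3% DMSO final), then lysed. Active GTP-KRAS captured on Raf-1 RBD-coated plates, detected with anti-pan-Ras and SULFO-TAG secondary by MSD electrochemiluminescence. Signal normalized to DMSO and maximum inhibition; IC50 from 4-parameter fit.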

Assay [2] has as its target T1, GDP-loaded KRAS (1-169) G12C, C51S, C80L, C118S (Homo sapiens, UniProt P01116, C118S/C51S/C80L/G12C).
T1 construct: GDP-loaded KRAS (1-169) G12C, C51S, C80L, C118S
Briefly: Mass Spectrometry Reactivity Assay (MSRA): covalent adduct of compound and KRAS G12C, Percent Modification. The conditions noted are these: for MSRA (% modification) 5.0 μM 0.017 hr: 5.0 μM compound. It is filed as binding. Summed up:
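GDP-loaded KRAS(1-169) G12C/C51S/C80L/C118S at 5 μM in 25 mM Hepes pH 7.5, 200 mM NaCl, 5% glycerol incubated at RT with compound (typically 5 or 10 μM final, 1% DMSO). Quenched in formic acid at 1-60 min; intact-protein LC-TOF MS gives % modification = modified/(modified+unmodified).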

As for `C#CCN1C[C@@H](OC)[C@H](Oc2nc(N3CCN(C(=O)C=C)CC3)c3cc(Cl)nc(Oc4c(Cl)c(F)cc5[nH]ncc45)c3n2)C1` [Example 40G, 1-[4-(6-chloro-8-[(5-chloro-6-fluoro-1H-indazol-4-yl)oxy]-2-{[(3R,4R)-4-methoxy-1-(prop-2-yn-1-yl)pyrrolidin-3-yl]oxy}pyrido[3,4-d]pyrimidin-4-yl)piperazin-1-yl]prop-2-en-1-one], the IC50 (commonly the point on the concentration scale where inhibition reaches its midpoint) in assay [1] was found to be 0.008 µM. In assay [2], the “MSRA (% modification) 5.0 μM 0.017 hr” value came to 83%.
`C=CC(=O)N1CCN(c2nc(O[C@@H]3CN(C)C[C@H]3OC)nc3c(Oc4c(C)c(Cl)cc5[nH]ncc45)nccc23)CC1` [Example 40I, 1-[4-(8-[(6-chloro-5-methyl-1H-indazol-4-yl)oxy]-2-{[(3R,4R)-4-methoxy-1-methyl-pyrrolidin-3-yl]oxy}pyrido [3,4-d]pyrimidin-4-yl)piperazin-1-yl]prop-2-en-1-one] registered an IC50 in assay [1] of 0.02 µM. Further, in assay [2], the “MSRA (% modification) 5.0 μM 0.017 hr” value worked out at 68%.
In assay [1], `C=CC(=O)N1CCN(c2ncnc3c(Oc4c(Cl)c(F)cc5[nH]ncc45)nc(N)cc23)CC1` [Example 41A, 1-(4-{6-amino-8-[(5-chloro-6-fluoro-1H-indazol-4-yl)oxy]pyrido[3,4-d]pyrimidin-4-yl}piperazin-1-yl)prop-2-en-1-one] displayed an IC50 of 3.5 µM. Further, the “MSRA (% modification) 10 μM 0.25 hr” value in assay [2] (10 μM compound, 0.25 hr) is 31%.
In the case of `[2H]C([2H])([2H])N1C[C@@H](OC)[C@H](Oc2nc(N3CCN(C(=O)C=C)CC3)c3cc(Cl)nc(Oc4c(Cl)c(F)cc5[nH]ncc45)c3n2)C1` [Example 41G, 1-[4-(6-chloro-8-[(5-chloro-6-fluoro-1H-indazol-4-yl)oxy]-2-{[(3R,4R)-4-methoxy-1-(^2H3)methylpyrrolidin-3-yl]oxy}pyrido[3,4-d]pyrimidin-4-yl)piperazin-1-yl]prop-2-en-1-one], in assay [1], the IC50 stood at 0.007 µM. The “MSRA (% modification) 5.0 μM 0.017 hr” value in assay [2] was 83%.
For the molecule `C=CC(=O)N1CCN(c2nc(Oc3cccc4c3CN(C)C4)nc3c(Oc4c(Cl)c(F)cc5[nH]ncc45)nccc23)CC1` [Example 41I, 1-(4-{8-[(5-chloro-6-fluoro-1H-indazol-4-yl)oxy]-2-[(2-methyl-2,3-dihydro-1H-isoindol-4-yl)oxy]pyrido [3,4-d]pyrimidin-4-yl}piperazin-1-yl)prop-2-en-1-one], it took 0.021 µM to reach half-maximal inhibition in assay [1] (IC50). For the same molecule, the “MSRA (% modification) 5.0 μM 0.017 hr” value in assay [2] is recorded as 70%.
The like results for `C=CC(=O)N1CCN(c2nc(Oc3cccc4c3CN(C)CC4)nc3c(Oc4c(Cl)c(F)cc5[nH]ncc45)nccc23)CC1` [Example 42I, 1-(4-{8-[(5-chloro-6-fluoro-1H-indazol-4-yl)oxy]-2-[(2-methyl-1,2,3,4-tetrahydro-isoquinolin-8-yl)oxy]pyrido [3,4-d]pyrimidin-4-yl}piperazin-1-yl)prop-2-en-1-one] were, in that order, 0.01 µM and 73%.
As for `C#CCN1C[C@@H](OC)[C@H](Oc2nc(N3CCN(C(=O)C=C)CC3)c3ccnc(Oc4c(Cl)c(F)cc5[nH]ncc45)c3n2)C1` [Example 43I, 1-[4-(8-[(5-chloro-6-fluoro-1H-indazol-4-yl)oxy]-2-{[(3R,4R)-4-methoxy-1-(prop-2-yn-1-yl)pyrrolidin-3-yl]oxy}pyrido [3,4-d]pyrimidin-4-yl)piperazin-1-yl]prop-2-en-1-one], the IC50 in assay [1] was 0.019 µM. The “MSRA (% modification) 5.0 μM 0.017 hr” value in assay [2] amounted to 54%.
Taken in the same sequence, the figures for `C#CCCN1C[C@@H](OC)[C@H](Oc2nc(N3CCN(C(=O)C=C)CC3)c3ccnc(Oc4c(Cl)c(F)cc5[nH]ncc45)c3n2)C1` [Example 44I, 1-[4-(2-{[(3R,4R)-1-(but-3-yn-1-yl)-4-methoxy-pyrrolidin-3-yl]oxy}-8-[(5-chloro-6-fluoro-1H-indazol-4-yl)oxy]pyrido [3,4-d]pyrimidin-4-yl)piperazin-1-yl]prop-2-en-1-one] were 0.032 µM and 56%.
Taken in the same sequence, the figures for `C=CC(=O)N1CCN(c2nc(O[C@@H]3CN(CCO)C[C@H]3OC)nc3c(Oc4c(Cl)c(F)cc5[nH]ncc45)nccc23)CC1` [Example 46I, 1-[4-(8-[(5-chloro-6-fluoro-1H-indazol-4-yl)oxy]-2-{[(3R,4R)-1-(2-hydroxy-ethyl)-4-methoxy-pyrrolidin-3-yl]oxy}pyrido [3,4-d]pyrimidin-4-yl)piperazin-1-yl]prop-2-en-1-one] were 0.285 µM and 70%.
The like results for `C=CC(=O)N1CCN(c2nc(Oc3cccc4c3CCN(C)C4)nc3c(Oc4c(Cl)ccc5[nH]ncc45)nccc23)CC1` [Example 48I, 1-(4-{8-[(5-chloro-1H-indazol-4-yl)oxy]-2-[(2-methyl-1,2,3,4-tetrahydro-isoquinolin-5-yl)oxy]pyrido [3,4-d]pyrimidin-4-yl}piperazin-1-yl)prop-2-en-1-one] were, in that order, 0.006 µM and 67%.
`C=CC(=O)N1CCN(c2nc(O[C@@H]3CN(C)C[C@H]3OC)nc3c(Oc4c(Cl)ccc5[nH]ncc45)nccc23)CC1` [Example 49I] gave an IC50 in assay [1] of 0.17 µM. Moreover, the “MSRA (% modification) 5.0 μM 0.017 hr” value in assay [2] came to 34%.
Taken in the same sequence, the figures for `C=CC(=O)N1CCN(c2nc(Oc3cccc4c3CCN(C)C4)nc3c(Oc4c(Cl)c(Cl)cc5[nH]ncc45)nccc23)CC1` [Example 50I, 1-(4-{8-[(5,6-dichloro-1H-indazol-4-yl)oxy]-2-[(2-methyl-1,2,3,4-tetrahydro-isoquinolin-5-yl)oxy]pyrido [3,4-d]pyrimidin-4-yl}piperazin-1-yl)prop-2-en-1-one] were 0.008 µM and 70%.
Taken in the same sequence, the figures for `C=CC(=O)N1CCN(c2nc(O[C@@H]3CN(C(C)(C)C)C[C@H]3OC)nc3c(Oc4c(Cl)c(F)cc5[nH]ncc45)nccc23)CC1` [Example 52I, 1-[4-(2-{[(3R,4R)-1-tert-butyl-4-methoxy-pyrrolidin-3-yl]oxy}-8-[(5-chloro-6-fluoro-1H-indazol-4-yl)oxy]pyrido [3,4-d]pyrimidin-4-yl)piperazin-1-yl]prop-2-en-1-one] were 0.023 µM and 81%.
Taken in the same sequence, the figures for `C=CC(=O)N1CCN(c2nc(Oc3ccc(F)c4c3CN(C)CC4)nc3c(Oc4c(Cl)c(F)cc5[nH]ncc45)nccc23)CC1` [Example 54I, 1-(4-{8-[(5-chloro-6-fluoro-1H-indazol-4-yl)oxy]-2-[(5-fluoro-2-methyl-1,2,3,4-tetrahydro-isoquinolin-8-yl)oxy]pyrido [3,4-d]pyrimidin-4-yl}piperazin-1-yl)prop-2-en-1-one] were 0.019 µM and 78%.
In the case of `C=CC(=O)N1CCN(c2nc(Oc3cccc4c3CCN(C3CC3)C4)nc3c(Oc4c(Cl)c(F)cc5[nH]ncc45)nccc23)CC1` [Example 55I, 1-(4-{8-[(5-chloro-6-fluoro-1H-indazol-4-yl)oxy]-2-[(2-cyclo-propyl-1,2,3,4-tetrahydro-isoquinolin-5-yl)oxy]pyrido [3,4-d]pyrimidin-4-yl}piperazin-1-yl)prop-2-en-1-one], the midpoint of inhibition in assay [1], the IC50, lay at 0.028 µM. Moreover, in assay [2], the “MSRA (% modification) 5.0 μM 0.017 hr” value is on record as 60%.
Taken in the same sequence, the figures for `[2H]C([2H])([2H])N1C[C@@H](OC)[C@H](Oc2nc(N3CCN(C(=O)C=C)CC3)c3ccnc(Oc4c(Cl)c(F)cc5[nH]ncc45)c3n2)C1` [Example 56I, 1-[4-(8-[(5-chloro-6-fluoro-1H-indazol-4-yl)oxy]-2-{[(3R,4R)-4-methoxy-1-(^2H3)methyl-pyrrolidin-3-yl]oxy}pyrido [3,4-d]pyrimidin-4-yl)piperazin-1-yl]prop-2-en-1-one] were 0.04 µM and 81%.
The molecule `C=CC(=O)N1CCN(c2nc(O[C@@H]3CN(C)C[C@H]3C(F)(F)F)nc3c(Oc4c(Cl)c(F)cc5[nH]ncc45)nccc23)CC1` [Example 57I, 1-[4-(8-[(5-chloro-6-fluoro-1H-indazol-4-yl)oxy]-2-{[(3S,4R)-1-methyl-4-(trifluoro-methyl)pyrrolidin-3-yl]oxy}pyrido [3,4-d]pyrimidin-4-yl)piperazin-1-yl]prop-2-en-1-one] showed an IC50 in assay [1] of 0.024 µM. Besides, the “MSRA (% modification) 5.0 μM 0.017 hr” value in assay [2] came out at 22%.

These data come from US10662204B2 (PFIZER INC., priority 2018, dated 2020).
